“Also recorded” adds a separate entry of the source. Read-outs that look alike come from different tables or passages of the source.
What was measured:
[1] = biological target: T1, human MIF (Homo sapiens, UniProt P14174); assay: MIF dopachrome tautomerase enzyme inhibition assay; type: biochemical; conditions: for IC50: MIF 0.7 μg/ml treated 5 minutes, dopachrome methyl ester (1) substrate; for MIF enzyme inhibition activity (in words): dopachrome tautomerase assay; for effect on MIF enzymatic activity at doses equimolar to MIF monomer: higher MIF concentrations (approximately 0.1 mg/ml and above); for inhibition at 200 µM: read-out: % inhibition at 200 μM
T1 construct: made in house; host or cells: E. coli
T1 sequence (P14174 2-115 limits assumed): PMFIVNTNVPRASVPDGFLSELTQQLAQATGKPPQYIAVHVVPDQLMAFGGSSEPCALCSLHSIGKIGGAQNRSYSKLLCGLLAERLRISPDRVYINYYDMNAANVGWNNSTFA

[2] = biological target: recombinant mouse MIF (Mus musculus, UniProt P34884); assay: Tautomerase enzyme inactivation of murine MIF before the bioassay
[3] = biological target: T1, human MIF; assay: MIF tautomerase inhibition in the presence of fetal bovine serum; type: biochemical
[4] = test system: L6 rat myoblasts; assay: Fructose-2,6-bisphosphate (F2,6BP) induction assay; type: cell-based; conditions: for induction of F2,6BP production (in words): MIF conjugated with compound, 10 ng/ml; for F2,6BP production: murine MIF 10 ng/ml, untreated or pretreated (conjugated) with compound, control=100%
[5] = biological target: T1, human MIF; assay: Covalent enzyme modification (SDS-PAGE, MALDI MS, dialysis/gel filtration)
[6] = test system: NIH/3T3 cells; assay: MIF-induced arachidonic acid release; type: cell-based; conditions: cells labeled with 1 μM [14C]-arachidonic acid
Method: NIH/3T3 cells were labeled with 1 μM [^14C]-arachidonic acid. After overnight culture, the cells were washed extensively with PBS and then the appropriate samples of MIF or MIF-NAPQI (4) conjugate were added in duplicate. The release of arachidonic acid into the culture medium was then measured.
The effect of MIF-NAPQI (4) conjugate on arachidonic acid release was tested by adding equivalent amounts of either MIF or MIF-NAPQI (4) conjugate to NIH3/3T3 cell cultures that had been pre-equilibrated with radioactive arachidonate, followed by the measurement of arachidonic acid release by scintillation counting. Briefly, NIH/3T3 fibroblasts were labeled with 1 μM [^14C]-arachidonic acid. After overnight culture, the cells were washed extensively with PBS, and the appropriate samples of MIF or MIF-NAPQI (4) conjugate were added in duplicate. The release of arachidonic acid into medium was then measured as described previously (Mitchell et al., J. Biol. Chem., 274:18100-18106, 1999).

[7] = test system: anti-MIF antibodies; assay: Cross-reactivity with anti-MIF antibodies (ELISA); type: binding; conditions: for recognition by anti-MIF antibodies (in words): MIF incubated with NAPQI (4) versus unmodified MIF
Method: FIG. 7 illustrates the loss of immunological crossreactivity with anti-MIF antibodies following incubation of MIF with NAPQI (4).
(iii) Cross-reactivity with anti-MIF antibodies. […] Without being bound by mechanism, and in view of the lack of bioactivity of the MIF-NAPQI (4) conjugate in the above arachidonic acid release and F2,6BP induction assays, it is likely that NAPQI (4) conjugation induces distortion of the MIF peptide conformation. This distortion also renders the MIF-NAPQI (a) (4) conjugate non-crossreactive with anti-MIF Mab.
The presence of such structural changes was further explored by characterizing the binding of additional MIF-specific antibodies (Picower Institute clones XIV. 14.3, III.D.9 and XIV. 15.5, which differ in their epitope recognition and activity to inhibit biologically active MIF), using a standard ELISA technique. In a standardized sandwich ELISA specific for MIF Meinhardt et al., Endocrinology, 137:5090-5095, 1996), an equivalent amount of MIF-NAPQI (4) conjugate (as indicated by protein concentration) was recognized 7-fold less than purified recombinant MIF that had not been exposed to NAPQI (4) (FIG. 7). Again, without being bound by mechanism, this loss of cross-reactivity of MIF-NAPQI (4) was most likely due to remote structural changes in MIF induced by covalent attachment of NAPQI (4). These structural changes might, in turn, account for the lack of bioactivities of MIF-NAPQI (4) and MIF-N-acetyl-3-hydroxy-p-benzoquinone imine (6) conjugates in the F2,6BP induction assay, and for the lack of bioactivity of MIF-NAPQI (4) conjugate in the arachidonic acid release assay.

## CC(=O)Nc1ccc(O)cc1 [Compound 3, acetaminophen, reference compound]
[1]
  IC50: 10000 µM

## CC(=O)N=C1C=CC(=O)C=C1 [Compound 4, N-Acetyl-p-benzoquinone imine]
[1]
  inhibition of enzymatic activity: 69%
  MIF enzyme inhibition activity (in words): potent inhibitor
[1]; read-out: enzyme inhibition
  inhibition at 49.5 µM: 37%
  inhibition at 190 µM: 94%
  inhibition at 500 µM: 100%
[2]; mouse MIF pretreated with 167 μM compound
  inhibition of enzyme activity / enzyme inactivation: 96%
[2]; read-out: inhibition of enzyme activity / enzyme inactivation, mouse MIF pretreated with 167 μM compound
  inhibition at 167 µM: 98%
[3]; MIF 0.72 μg/ml, compound 0.2 mM
  fetal bovine serum concentration at which loss in inhibitory activity became detectable: 25%
[3]; MIF 0.72 μg/ml, compound 0.2 mM, 20 minutes
  inhibition of MIF in the presence of serum proteins (in words): occurred even in the presence of serum proteins
[3]; read-out: residual inhibitory activity
  inhibition at 200 µM: 31%
[4]
  induction of F2,6BP production (in words): fail to induce
  F2,6BP production: 94 % of control
[5]; MIF inactivated with compound, data not shown
  restoration of enzymatic activity by dialyzing or gel filtering inactivated MIF: not possible to restore enzymatic activity
[5]; SDS-PAGE and MALDI mass spectra of treated MIF
  chemical modification of MIF (in words): stable, covalent conjugates

## CC(=O)Nc1ccc(O)c(O)c1 [Compound 5]
[1]
  IC50: 500 µM
  MIF enzyme inhibition activity (in words): little, if any

## CC(=O)N=C1C=CC(=O)C(O)=C1 [Compound 6, N-acetyl-3-hydroxy-p-benzoquinone imine]
[1]
  IC50: 0.7 µM
  MIF enzyme inhibition activity (in words): potent inhibitors; also recorded: sub-micromolar
  effect on MIF enzymatic activity at doses equimolar to MIF monomer: virtually eliminated
[1]; MIF 2.8 μM (0.1 mg/ml, 8.4 μM monomer), compound at 7 μM (0.83 equivalents based on monomer)
  enzyme activity lost: 93%
[1]; MIF 0.1 mg/ml, 1.7 equivalents/monomer
  enzyme activity lost (in words): All
[1]; ratio of IC50 values versus compound 5
  more potent than dihydroquinone-like analog 5: more than 715 fold
[4]
  induction of F2,6BP production (in words): fail to induce
  F2,6BP production: 105 % of control

## CC(=O)N=C1C=CC(=O)C(C)=C1 [Compound 7]
[1]
  IC50: 35 µM

## CC(=O)N=C1C=C(C)C(=O)C(C)=C1 [Compound 8]
[1]
  IC50: 120 µM

## CC(=O)N=C1C(C)=CC(=O)C=C1C [Compound 9]
[1]
  IC50: 200 µM

## COc1cc(NC(C)=O)ccc1O [Compound 10]
[1]
  MIF enzyme inhibition activity (in words): little, if any
[1]; 200 μM compound, MIF 0.7 μg/ml, 5 minutes
  inhibition at 200 µM: 0%

## COC1=CC(=NC(C)=O)C=CC1=O [Compound 11]
[1]
  IC50: 25 µM

## O=C(O)c1ccc(O)c(O)c1 [Compound 13]
[1]
  MIF enzyme inhibition activity (in words): little, if any
  inhibition at 200 µM: 24%

## O=C(O)C1=CC(=O)C(=O)C=C1 [Compound 14]
[1]
  IC50: 4 µM

## O=C(O)/C=C/c1ccc(O)c(O)c1 [Compound 15]
[1]
  MIF enzyme inhibition activity (in words): little, if any

## O=C(O)/C=C/C1=CC(=O)C(=O)C=C1 [Compound 16]
[1]
  IC50: 0.3 µM
  MIF enzyme inhibition activity (in words): sub-micromolar
  effect on MIF enzymatic activity at doses equimolar to MIF monomer: virtually eliminated

## CCN1C(=O)C=CC1=O [Compound 18, N-ethylmaleimide, reference compound]
[1]
  MIF enzyme inhibition activity (in words): No inhibitory activity
[1]; read-out: % inhibition at 500 μM
  inhibition at 500 µM: 0%

## iodoacetamide [Compound 17, reference compound]
[1]; 500 μM compound, MIF 0.7 μg/ml, 5 minutes
  % inhibition at 500 μM: 0% inhibition at 500 μM
[1]
  MIF enzyme inhibition activity (in words): No inhibitory activity

B1: MIF-NAPQI (4) conjugate: stable covalent conjugate formed when MIF is treated with NAPQI (4) (conjugate, UniProt P14174 2-115, looked up)
Macrophage migration …: T1 sequence (P14174 2-115 limits assumed)
modifications: covalent NAPQI adduct
[6]
  induction of arachidonic acid release (in words): did not induce; also recorded: does not induce
[6]; equivalent amounts of MIF or conjugate
  arachidonic acid released into culture supernatant relative to cultures treated with MIF: less than 1/10
[4]
  induction of F2,6BP production (in words): failed to induce
[7]
  recognition by anti-MIF antibodies (in words): fail to recognize
[7]; listed as MIF-NAPQI conjugate
  recognition by anti-MIF antibodies (in words): significantly less
[7]; equivalent amount by protein concentration, standardized sandwich ELISA specific for MIF
  recognition in sandwich ELISA, less than unmodified recombinant MIF: 7 fold
